Tested on: transglutaminase 1 (TG1) mRNA in human epidermal keratinocytes
Assay: Expression of transglutaminase 1 (TG1) by differentiating keratinocytes (real time PCR of TG1 mRNA)
Assay type: cell-based
Details: substances alone: retinol 1×10−10 M, TSA 10−9 M; 1.3 mM calcium; 72 hours; relative to non-treated cells
From the text: This example illustrates how the HDAC inhibitor Trichostatin A and Retinol work synergistically. An in vitro cell culture of human primary keratinocytes has been chosen as test system. This in vitro cell culture model is useful to study differentiation processes and is able to simulate the in vivo situation in human skin (Poumay et al., 1999). To monitor differentiation processes in vitro and in vivo transglutaminase 1 is a well known marker molecule (Polakowska et al., 1999).
Epidermal keratinocytes were isolated from human foreskin biopsies and cultured in keratinocyte serum free medium (KSFM made by GIBCO) in a growth chamber with 37° C. and 5% CO2. At the second passage, cells were transferred to 6 well plates and allowed to reach approximately 50% surface confluence.
Retinol and TSA were solubilized in ethanol or ethanol/tetrahydrofuran respectively. Retinol solutions were handled under yellow light conditions only. […]
Seventy-two hours after the beginning of the treatment, cells were harvested and the RNA extracted. […] Relative quantification of TG1 mRNA transcript levels in control versus treatment cultures were determined using multiplexed real time PCR analysis. […]

| modulation of the terminal differentiation process in epidermal keratinocytes (TG1 mRNA) | Structure (SMILES) |
| --- | --- |
| only weak modulation | CC(/C=C/C(=O)NO)=C\[C@@H](C)C(=O)c1ccc(N(C)C)cc1 [TSA, Trichostatin A] |
| only weak modulation | CC1=C(/C=C/C(C)=C/C=C/C(C)=C/CO)C(C)(C)CCC1 [Retinol] |
